Measurements from ChEMBL document CHEMBL3885861, “Open TG-GATES”.

Species on record: Rattus norvegicus
Test: Open TG-GATES - Regimen: Single
Assay type: toxicity, organism-based, Sprague-Dawley
Design: regimen Single, gender Male, age 6 weeks
Settings: in vivo, po, 15 mg/kg, route gavage; for TC / TP / gamma-GTP / ALP / ALT / AST / BUN / CRE / Ca / Cl / DBIL / GLC / IP / K / LDH / Na / PL / RALB / TBIL: tissue Plasma; for APTT / Bas / Eos / Fbg / Hb / Ht / Lym / MCH / MCHC / MCV / Mono / Neu / PT / Plat / RBC / Ret / WBC: tissue Blood; for KIDNEY_L / KIDNEY_R / KIDNEY_TOTAL: tissue Kidney; for LIVER: tissue Liver

O=P1(N(CCCl)CCCl)NCCCO1 (stereo not given) [CYCLOPHOSPHAMIDE ANHYDROUS]
TC (3 h, dose level Low): 68.6 mg/dL
TP (3 h, dose level Low): 5.2 g/dL
gamma-GTP (3 h, dose level Low): 1.2 IU/L
TERMINAL_BW (6 h, dose level High): 193.9 g
TERMINAL_BW (6 h, dose level Low): 190.6 g
APTT (6 h, dose level High): 21.7 s
Bas (6 h, dose level High): 0%
Eos (6 h, dose level High): 0.6%
Fbg (6 h, dose level High): 313.4 mg/dL
Hb (6 h, dose level High): 13.3 g/dL
Ht (6 h, dose level High): 39.9%
Lym (6 h, dose level High): 79.4%
MCH (6 h, dose level High): 21.5 pg
MCHC (6 h, dose level High): 33.3%
MCV (6 h, dose level High): 64.8 fL
Mono (6 h, dose level High): 2.2%
Neu (6 h, dose level High): 17.4%
PT (6 h, dose level High): 15.6 s
Plat (6 h, dose level High): 122.7 x10_4/uL
RBC (6 h, dose level High): 616.8 x10_4/ul
Ret (6 h, dose level High): 9%
WBC (6 h, dose level High): 68.2 x10_2/uL
APTT (6 h, dose level Low): 20.3 s
Eos (6 h, dose level Low): 1.2%
Fbg (6 h, dose level Low): 302 mg/dL
Hb (6 h, dose level Low): 13 g/dL
Ht (6 h, dose level Low): 38.9%
Lym (6 h, dose level Low): 80.6%
MCH (6 h, dose level Low): 20.9 pg
MCHC (6 h, dose level Low): 33.4%
MCV (6 h, dose level Low): 62.4 fL
Mono (6 h, dose level Low): 2.4%
Neu (6 h, dose level Low): 15.8%
PT (6 h, dose level Low): 13.9 s
Plat (6 h, dose level Low): 115.7 x10_4/uL
RBC (6 h, dose level Low): 624 x10_4/ul
Ret (6 h, dose level Low): 8.9%
WBC (6 h, dose level Low): 71.4 x10_2/uL
KIDNEY_L (6 h, dose level High): 0.8 g
KIDNEY_R (6 h, dose level High): 0.9 g
KIDNEY_TOTAL (6 h, dose level High): 1.7 g
KIDNEY_R (6 h, dose level Low): 0.8 g
LIVER (6 h, dose level High): 8.4 g
LIVER (6 h, dose level Low): 7.6 g
ALP (6 h, dose level High): 1569.4 IU/L
ALT (6 h, dose level High): 39.2 IU/L
AST (6 h, dose level High): 74.8 IU/L
BUN (6 h, dose level High): 10.2 mg/dL
CRE (6 h, dose level High): 0.1 mg/dL
Ca (6 h, dose level High): 10.7 mg/dL
Cl (6 h, dose level High): 106.8 meq/L
DBIL (6 h, dose level High): 0 mg/dL
GLC (6 h, dose level High): 185.8 mg/dL
IP (6 h, dose level High): 10.4 mg/dL
K (6 h, dose level High): 4.5 meq/L
LDH (6 h, dose level High): 216.8 IU/L
Na (6 h, dose level High): 143.2 meq/L
PL (6 h, dose level High): 144 mg/dL
RALB (6 h, dose level High): 2.9 g/dL
TBIL (6 h, dose level High): 0.032 mg/dL
TC (6 h, dose level High): 81.8 mg/dL
TP (6 h, dose level High): 5.4 g/dL
gamma-GTP (6 h, dose level High): 1.2 IU/L
ALP (6 h, dose level Low): 1365.4 IU/L
ALT (6 h, dose level Low): 33.2 IU/L
AST (6 h, dose level Low): 70.4 IU/L
BUN (6 h, dose level Low): 8.4 mg/dL
CRE (6 h, dose level Low): 0.2 mg/dL
Ca (6 h, dose level Low): 10.9 mg/dL
Cl (6 h, dose level Low): 107 meq/L
DBIL (6 h, dose level Low): 0.014 mg/dL
GLC (6 h, dose level Low): 168.2 mg/dL
IP (6 h, dose level Low): 9 mg/dL
K (6 h, dose level Low): 4.3 meq/L
LDH (6 h, dose level Low): 83.8 IU/L
Na (6 h, dose level Low): 142 meq/L
PL (6 h, dose level Low): 141.6 mg/dL
RALB (6 h, dose level Low): 2.5 g/dL
TBIL (6 h, dose level Low): 0.072 mg/dL
TC (6 h, dose level Low): 79 mg/dL
TP (6 h, dose level Low): 5.3 g/dL
TERMINAL_BW (9 h, dose level High): 185.5 g
TERMINAL_BW (9 h, dose level Low): 184.1 g
APTT (9 h, dose level High): 20.7 s
Bas (9 h, dose level High): 0%
Eos (9 h, dose level High): 0.8%
Fbg (9 h, dose level High): 320.4 mg/dL
Hb (9 h, dose level High): 13.2 g/dL
Ht (9 h, dose level High): 39.3%
Lym (9 h, dose level High): 78%
MCH (9 h, dose level High): 21 pg
MCHC (9 h, dose level High): 33.6%
MCV (9 h, dose level High): 62.4 fL
Mono (9 h, dose level High): 2.2%
Neu (9 h, dose level High): 19%
PT (9 h, dose level High): 16.2 s
Plat (9 h, dose level High): 113.9 x10_4/uL
RBC (9 h, dose level High): 631 x10_4/ul
Ret (9 h, dose level High): 7.3%
WBC (9 h, dose level High): 57.8 x10_2/uL
APTT (9 h, dose level Low): 16.7 s
Eos (9 h, dose level Low): 1%
Fbg (9 h, dose level Low): 285.6 mg/dL
Hb (9 h, dose level Low): 12.7 g/dL
Ht (9 h, dose level Low): 37.6%
Lym (9 h, dose level Low): 75%
MCH (9 h, dose level Low): 20.8 pg
MCHC (9 h, dose level Low): 33.7%
MCV (9 h, dose level Low): 61.8 fL
Neu (9 h, dose level Low): 21.4%
PT (9 h, dose level Low): 14 s
Plat (9 h, dose level Low): 120.4 x10_4/uL
RBC (9 h, dose level Low): 608.4 x10_4/ul
Ret (9 h, dose level Low): 8.8%
WBC (9 h, dose level Low): 67.8 x10_2/uL
KIDNEY_L (9 h, dose level High): 0.8 g
KIDNEY_R (9 h, dose level High): 0.9 g
KIDNEY_TOTAL (9 h, dose level High): 1.7 g
KIDNEY_R (9 h, dose level Low): 0.8 g
KIDNEY_TOTAL (9 h, dose level Low): 1.6 g
LIVER (9 h, dose level High): 7.5 g
LIVER (9 h, dose level Low): 6.9 g
ALP (9 h, dose level High): 1487.4 IU/L
ALT (9 h, dose level High): 34.8 IU/L
AST (9 h, dose level High): 67.4 IU/L
BUN (9 h, dose level High): 9.2 mg/dL
CRE (9 h, dose level High): 0.2 mg/dL
Ca (9 h, dose level High): 10.5 mg/dL
Cl (9 h, dose level High): 107.4 meq/L
DBIL (9 h, dose level High): 0.002 mg/dL
GLC (9 h, dose level High): 186 mg/dL
IP (9 h, dose level High): 10.1 mg/dL
K (9 h, dose level High): 3.9 meq/L
LDH (9 h, dose level High): 185.4 IU/L
Na (9 h, dose level High): 143.4 meq/L
PL (9 h, dose level High): 123.8 mg/dL
RALB (9 h, dose level High): 3 g/dL
TBIL (9 h, dose level High): 0.032 mg/dL
TC (9 h, dose level High): 69.2 mg/dL
TP (9 h, dose level High): 5.4 g/dL
